# Target: T1, G1 APOL1 (Homo sapiens, UniProt O14791, I384M/S342G)
# T1 construct: expressed in transfected cells
# T1 sequence (O14791 28-398 S342G/I384M): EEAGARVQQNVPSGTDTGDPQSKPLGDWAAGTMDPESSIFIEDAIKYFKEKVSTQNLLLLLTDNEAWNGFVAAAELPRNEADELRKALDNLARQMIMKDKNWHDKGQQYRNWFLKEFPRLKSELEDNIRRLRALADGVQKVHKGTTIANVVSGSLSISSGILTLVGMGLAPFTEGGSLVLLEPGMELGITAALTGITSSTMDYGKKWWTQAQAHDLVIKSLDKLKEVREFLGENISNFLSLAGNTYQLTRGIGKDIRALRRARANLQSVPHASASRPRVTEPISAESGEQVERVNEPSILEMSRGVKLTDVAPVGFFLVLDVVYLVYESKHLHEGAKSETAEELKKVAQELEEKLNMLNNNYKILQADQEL
# Assay: Acute APOL1 Thallium Assay with inducible stable clones of HEK 293 cells
# Type: cell-based
# Details: HEK 293 T-Rex cells expressing G1 APOL1; read-out: Thallium Assay (IC50)
# How it was run: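 Tetracycline-inducible HEK293 T-Rex clone G1 DC3.25 expressing G1 APOL1, plated at 26000 cells/well in Opti-MEM with tetracycline induction. APOL1 pore activity read on FLIPR as fluorescence increase from Tl+ influx into cells loaded with a Tl+-sensitive AM-ester dye.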
row,IC50,SMILES
1,250 to 1000 nM,O=C1NCCCC1NC(=O)[C@H]1C[C@H](c2c(-c3ccc(F)cc3)[nH]c3c(F)cc(F)cc32)C1 (stereo partly shown) [Compound 23]
2,250 to 1000 nM,O=C(N[C@H]1COC[C@@H]1O)[C@H]1C[C@H](c2c(-c3ccc(F)cc3)[nH]c3c(F)cc(F)cc32)C1 [Compound 184]
3,> 1000 nM,Cc1cnc(NC(=O)[C@H]2C[C@H](c3c(-c4ccc(F)cc4)[nH]c4c(F)cc(F)cc43)C2)o1 [Compound 24]
4,> 1000 nM,COC[C@@H]1CCN1C(=O)[C@H]1C[C@H](c2c(-c3ccc(F)cc3)[nH]c3c(F)cc(F)cc32)C1 [Compound 220]
5,250 to 1000 nM,O=C(NCC1(O)CC1)[C@H]1C[C@H](c2c(-c3ccc(F)cc3)[nH]c3c(F)cc(F)cc32)C1 [Compound 183]
6,< 250 nM,CC(CO)(CO)NC(=O)[C@H]1C[C@H](c2c(-c3ccc(F)cc3)[nH]c3c(F)cc(F)cc32)C1 [Compound 186]
7,> 1000 nM,O=C([C@H]1C[C@H](c2c(-c3ccc(F)cc3)[nH]c3c(F)cc(F)cc32)C1)N1CC(CO)C1 [Compound 223]
8,> 1000 nM,O=C(NC[C@H](O)CO)[C@H]1C[C@H](c2c(-c3ccc(F)cc3)[nH]c3c(F)cc(F)cc32)C1 [Compound 225]
9,250 to 1000 nM,C#CC(CO)NC(=O)[C@H]1C[C@H](c2c(-c3ccc(F)cc3)[nH]c3c(F)cc(F)cc32)C1 (stereo partly shown) [Compound 196]
10,< 250 nM,O=C([C@H]1C[C@H](c2c(-c3ccc(F)cc3)[nH]c3c(F)cc(F)cc32)C1)N1CC[C@@H]1CO [Compound 195]
11,250 to 1000 nM,CC1(CO)CCN1C(=O)[C@H]1C[C@H](c2c(-c3ccc(F)cc3)[nH]c3c(F)cc(F)cc32)C1 (mixture of isomers) [Compound 218]
12,> 1000 nM,O=C(N[C@@H]1CCC[C@@H]1O)[C@H]1C[C@H](c2c(-c3ccc(F)cc3)[nH]c3c(F)cc(F)cc32)C1 [Compound 179]
13,250 to 1000 nM,"NC(=O)C1CC(c2c(-c3ccc(F)cc3)[nH]c3c(F)cc(F)cc23)C1 (stereo not shown) [Compound 278, 3-[5,7-difluoro-2-(4-fluorophenyl)-1H-indol-3-yl]cyclobutanecarboxamide]"
14,> 1000 nM,Cn1cncc1CNC(=O)[C@H]1C[C@H](c2c(-c3ccc(F)cc3)[nH]c3c(F)cc(F)cc32)C1 [Compound 174]
15,< 250 nM,C[C@@H](CO)NC(=O)[C@H]1C[C@H](c2c(-c3ccc(F)cc3)[nH]c3c(F)cc(F)cc32)C1 [Compound 200]
16,< 250 nM,N#CC(CO)NC(=O)[C@H]1C[C@H](c2c(-c3ccc(F)cc3)[nH]c3c(F)cc(F)cc32)C1 (stereo partly shown) [Compound 201]
17,< 250 nM,C[C@H](O)[C@@H](CO)NC(=O)[C@H]1C[C@H](c2c(-c3ccc(F)cc3)[nH]c3c(F)cc(F)cc32)C1 [Compound 16]
18,> 1000 nM,Cc1cc(CNC(=O)[C@H]2C[C@H](c3c(-c4ccc(F)cc4)[nH]c4c(F)cc(F)cc43)C2)on1 [Compound 37]
19,250 to 1000 nM,O=C(NCc1nnco1)[C@H]1C[C@H](c2c(-c3ccc(F)cc3)[nH]c3c(F)cc(F)cc32)C1 [Compound 171]
20,> 1000 nM,CC(C)CC(NC(=O)[C@H]1C[C@H](c2c(-c3ccc(F)cc3)[nH]c3c(F)cc(F)cc32)C1)C(N)=O (stereo partly shown) [Compound 30]
21,250 to 1000 nM,CC1(NC(=O)[C@H]2C[C@H](c3c(-c4ccc(F)cc4)[nH]c4c(F)cc(F)cc43)C2)CCNC1=O (mixture of isomers) [Compound 197]

row,IC50,SMILES
1,> 1000 nM,O=C(NCCn1cnnc1)[C@H]1C[C@H](c2c(-c3ccc(F)cc3)[nH]c3c(F)cc(F)cc32)C1 [Compound 39]
2,250 to 1000 nM,Cc1nnc(CNC(=O)[C@H]2C[C@H](c3c(-c4ccc(F)cc4)[nH]c4c(F)cc(F)cc43)C2)o1 [Compound 172]
3,250 to 1000 nM,O=C(N[C@H]1CC[C@H]1O)[C@H]1C[C@H](c2c(-c3ccc(F)cc3)[nH]c3c(F)cc(F)cc32)C1 [Compound 181]
4,> 1000 nM,O=C1NCCC1CNC(=O)[C@H]1C[C@H](c2c(-c3ccc(F)cc3)[nH]c3c(F)cc(F)cc32)C1 (stereo partly shown) [Compound 208]
5,> 1000 nM,CC(C)(O)C(O)CNC(=O)[C@H]1C[C@H](c2c(-c3ccc(F)cc3)[nH]c3c(F)cc(F)cc32)C1 (stereo partly shown) [Compound 215]
6,> 1000 nM,Cn1ccc(NC(=O)[C@H]2C[C@H](c3c(-c4ccc(F)cc4)[nH]c4c(F)cc(F)cc43)C2)n1 [Compound 22]
7,> 1000 nM,CC1CC(NC(=O)[C@H]2C[C@H](c3c(-c4ccc(F)cc4)[nH]c4c(F)cc(F)cc43)C2)C(=O)O1 (stereo partly shown) [Compound 207]
8,250 to 1000 nM,O=C1OCC[C@@H]1NC(=O)[C@H]1C[C@H](c2c(-c3ccc(F)cc3)[nH]c3c(F)cc(F)cc32)C1 [Compound 188]
9,> 1000 nM,O=C(NC1CCOC1)[C@H]1C[C@H](c2c(-c3ccc(F)cc3)[nH]c3c(F)cc(F)cc32)C1 (stereo partly shown) [Compound 15]
10,250 to 1000 nM,O=C(NCC1(O)COC1)[C@H]1C[C@H](c2c(-c3ccc(F)cc3)[nH]c3c(F)cc(F)cc32)C1 [Compound 185]
11,250 to 1000 nM,CC[C@@H](CO)NC(=O)[C@H]1C[C@H](c2c(-c3ccc(F)cc3)[nH]c3c(F)cc(F)cc32)C1 [Compound 204]
12,250 to 1000 nM,C[C@@H](O)CNC(=O)[C@H]1C[C@H](c2c(-c3ccc(F)cc3)[nH]c3c(F)cc(F)cc32)C1 [Compound 175]
13,> 1000 nM,CS(=O)(=O)NC(=O)[C@H]1C[C@H](c2c(-c3ccc(F)cc3)[nH]c3c(F)cc(F)cc32)C1 [Compound 213]
14,250 to 1000 nM,O=C(NCC(O)CO)[C@H]1C[C@H](c2c(-c3ccc(F)cc3)[nH]c3c(F)cc(F)cc32)C1 (stereo partly shown) [Compound 14]
15,250 to 1000 nM,CS(=O)(=O)CCNC(=O)[C@H]1C[C@H](c2c(-c3ccc(F)cc3)[nH]c3c(F)cc(F)cc32)C1 [Compound 40]
16,250 to 1000 nM,C[C@]1(NC(=O)[C@H]2C[C@H](c3c(-c4ccc(F)cc4)[nH]c4c(F)cc(F)cc43)C2)C[C@@H](O)C1 [Compound 211]
17,250 to 1000 nM,CC[C@H](CO)NC(=O)[C@H]1C[C@H](c2c(-c3ccc(F)cc3)[nH]c3c(F)cc(F)cc32)C1 [Compound 203]
18,> 1000 nM,O=C1CN(C(=O)[C@H]2C[C@H](c3c(-c4ccc(F)cc4)[nH]c4c(F)cc(F)cc43)C2)CCN1 [Compound 228]
19,> 1000 nM,O=C([C@H]1C[C@H](c2c(-c3ccc(F)cc3)[nH]c3c(F)cc(F)cc32)C1)N1CCOC[C@H]1CO [Compound 217]
20,> 1000 nM,COC1CC1NC(=O)[C@H]1C[C@H](c2c(-c3ccc(F)cc3)[nH]c3c(F)cc(F)cc32)C1 (stereo partly shown) [Compound 18]
21,< 250 nM,Cc1noc(CNC(=O)[C@H]2C[C@H](c3c(-c4ccc(F)cc4)[nH]c4c(F)cc(F)cc43)C2)n1 [Compound 173]

row,IC50,SMILES
1,> 1000 nM,O=C(NC[C@@H](O)CO)[C@H]1C[C@H](c2c(-c3ccc(F)cc3)[nH]c3c(F)cc(F)cc32)C1 [Compound 224]
2,250 to 1000 nM,O=C(NC(CO)C1CC1)[C@H]1C[C@H](c2c(-c3ccc(F)cc3)[nH]c3c(F)cc(F)cc32)C1 (stereo partly shown) [Compound 199]
3,< 250 nM,NC(=O)C(CO)NC(=O)[C@H]1C[C@H](c2c(-c3ccc(F)cc3)[nH]c3c(F)cc(F)cc32)C1 (stereo partly shown) [Compound 32]
4,250 to 1000 nM,COC[C@@H]1CCN1C(=O)[C@H]1C[C@H](c2c(-c3ccc(F)cc3)[nH]c3c(F)cc(F)cc32)C1 [Compound 222]
5,< 250 nM,O=C(NC1(CO)CCOC1)[C@H]1C[C@H](c2c(-c3ccc(F)cc3)[nH]c3c(F)cc(F)cc32)C1 (stereo partly shown) [Compound 194]
6,> 1000 nM,CC(C)C(CO)NC(=O)[C@H]1C[C@H](c2c(-c3ccc(F)cc3)[nH]c3c(F)cc(F)cc32)C1 (stereo partly shown) [Compound 29]
7,250 to 1000 nM,O=C(NCC(F)(F)F)[C@H]1C[C@H](c2c(-c3ccc(F)cc3)[nH]c3c(F)cc(F)cc32)C1 [Compound 33]
8,250 to 1000 nM,CC(C#N)(CO)NC(=O)[C@H]1C[C@H](c2c(-c3ccc(F)cc3)[nH]c3c(F)cc(F)cc32)C1 (stereo partly shown) [Compound 191]
9,250 to 1000 nM,Cn1ncc(CNC(=O)[C@H]2C[C@H](c3c(-c4ccc(F)cc4)[nH]c4c(F)cc(F)cc43)C2)n1 [Compound 198]
10,> 1000 nM,O=C1N[C@H](CO)C[C@@H]1NC(=O)[C@H]1C[C@H](c2c(-c3ccc(F)cc3)[nH]c3c(F)cc(F)cc32)C1 [Compound 209]
11,> 1000 nM,O=C([C@H]1C[C@H](c2c(-c3ccc(F)cc3)[nH]c3c(F)cc(F)cc32)C1)N1CCC[C@H]1CO [Compound 210]
12,> 1000 nM,O=C(N[C@H]1CC[C@@H]1O)[C@H]1C[C@H](c2c(-c3ccc(F)cc3)[nH]c3c(F)cc(F)cc32)C1 [Compound 178]
13,> 1000 nM,CC(O)(CO)CNC(=O)[C@H]1C[C@H](c2c(-c3ccc(F)cc3)[nH]c3c(F)cc(F)cc32)C1 (mixture of isomers) [Compound 216]
14,250 to 1000 nM,O=C(N[C@@H]1CCOC1)[C@H]1C[C@H](c2c(-c3ccc(F)cc3)[nH]c3c(F)cc(F)cc32)C1 [Compound 19]
15,> 1000 nM,O=C([C@H]1C[C@H](c2c(-c3ccc(F)cc3)[nH]c3c(F)cc(F)cc32)C1)N1CCC[C@@H]1CO [Compound 192]
16,250 to 1000 nM,O=C(NC[C@@H](O)C(F)(F)F)[C@H]1C[C@H](c2c(-c3ccc(F)cc3)[nH]c3c(F)cc(F)cc32)C1 [Compound 177]
17,> 1000 nM,O=C(NCCn1cccc1)[C@H]1C[C@H](c2c(-c3ccc(F)cc3)[nH]c3c(F)cc(F)cc32)C1 [Compound 34]
18,< 250 nM,O=C(NCCn1cncn1)[C@H]1C[C@H](c2c(-c3ccc(F)cc3)[nH]c3c(F)cc(F)cc32)C1 [Compound 36]
19,250 to 1000 nM,CC(CO)N(C)C(=O)[C@H]1C[C@H](c2c(-c3ccc(F)cc3)[nH]c3c(F)cc(F)cc32)C1 (mixture of isomers) [Compound 193]

# From patent publication US12116343B2, “Inhibitors of APOL1 and methods of using same” (Vertex Pharmaceuticals Incorporated, priority 2020, dated 2024)
